Assay results as given in patent US20050101542A1, “Combination therapy for controlling appetites” (Regents of the University of California, priority 2002, published 2005).

How the values were obtained:
[1] = Plasma hormone levels by radioimmunoassay; assay type: in vivo, rat; conditions: 20 mg per kg i.p.
Description: Blood chemistry. Plasma β-hydroxybutyrate and glycerol were measured using commercial kits (Sigma, St. Louis, Mo.). Plasma prolactin, corticosterone and luteinizing hormone were quantified by radioimmunoassay (Navarro, et al., Neuroreport, 8:491-496 (1997)).

[2] = Food intake in vagotomized or capsaicin-treated rats, Example 3; assay type: in vivo, rat; conditions: rats; OEA 10, Wy-14643 40 mg kg^−1 i.p.
[3] = OEA for 2 weeks in obese Zucker rats: serum lipids, glucose, food intake, body weight; assay type: in vivo, rat
Description: (§1) Subchronic experiments. Male wild-type and PPARα null mice were fed with a very high-fat diet (60 kcal % fat; D12492; Research Diets, NJ). […] The mice were divided into 4 groups (n=7-8 each), and treated them for 4 additional weeks with vehicle (saline/polyethylene glycol/Tween 80, 90/5/5; 1 ml-kg^−1) Or OEA (5 mg-kg^−1, once daily, i.p.). In a separate experiment, obese Zucker rats were treated for 2 weeks with vehicle or OEA (5 mg-kg^−1, once daily, i.p.), while maintaining them on a regular rodent chow (RMH 2500, Prolab). Food intake and body weight were measured daily. At the end of the experiments, the animals were fasted overnight, and tissues and blood samples collected for biochemical analyses.
Chronic experiment: In a separate experiment, we treated obese Zucker rats for 2 weeks with vehicle (saline/polyethylene glycol/Tween-80, 90/5/5; 1 ml kg^−1, once daily, i.p.) or OEA (5 mg kg^−1, once daily, i.p.), while maintaining them on a regular rodent chow (RMH 2500, Prolab). We measured food intake and body weight daily. At the end of the experiments, the animals were fasted overnight, and tissues and blood samples collected for biochemical analyses.
(§2) Lipids were extracted from mouse liver and epidydimal adipose tissue (Bligh and Dyer, 1959) and measured triglycerides with a commercial kit (Sigma). Serum lipids and glucose were measured with an automated Synchron LX® system (Beckman-Coulter).

[4] = Other behavioral assays (elevated plus maze, open field, hot plate, rectal temperature); assay type: in vivo, rat
Description: Other behavioral assays. The elevated plus maze test was conducted as described (Navarro, et al., Neuroreport, 8:491-496 (1997)) after the administration of vehicle or OEA (20 mg per kg, i.p.). Horizontal activity in an open field (Beltramo et al., J. Neurosci., 20:3401-3407 (2000)) and pain threshold in the hot plate test (55° C.) (Beltramo et al., Science, 277:1094-1097 (1997)) were measured 15 min after injection of vehicle or OEA (20 mg per kg). Rectal temperature was measured using a digital thermometer (Martin-Calderón et al., Eur. J. Pharmacol., 344:77-86. (1998)).

[5] = Conditioned taste aversion; assay type: in vivo, rat; conditions: 20 mg per kg i.p.
Description: Conditioned taste aversion. Rats were water-deprived for 24 h and then accustomed to drink from a graded bottle during a 30-min test period for four days. On day five, water was substituted with a 0.1% saccharin solution and, 30 min later, the animals received injections of vehicle, OEA (20 mg per kg) Or lithium chloride (0.4 M, 7.5 ml per kg). During the following two days, water consumption was recorded over 30-min test periods. The animals were then presented with water or saccharin, and drinking measured.

[6] = Subchronic OEA in high-fat-fed obese wild-type and PPARα null mice; assay type: in vivo, mouse; conditions: 4 weeks; for hypercholesterolemia (serum cholesterol): 5 mg-kg^−1 once daily i.p.
Description: as §1, §2

[7] = Acute food intake in 24-h food-deprived rats, i.p. dosing; assay type: in vivo, rat
Description: Feeding experiments. Acute experiments. Food intake was measured in 24-h food-deprived rats (Navarro, et al., J. Neurochem., 67:1982-1991 (1996)), administering drugs 15 min before food presentation. Subchronic experiments. Ad libitum fed rats received vehicle injections for three days. On day four, the animals were divided in two equal groups and gave them daily injections of vehicle or OEA (5 mg per kg at 1900 h) for 7 consecutive days, while measuring body weight, food intake and water intake.
The effects of systemically administered OEA or an OEA-like compound or OEA-like modulator on food intake in rats can be assessed using a 24 h fast. […] To define the selectivity of this response, various OEA analogs were evaluated for their ability to produce hypophagia.

[8] = Acute feeding experiments in free-feeding mice (C57BL/6J, wild-type, PPARα-null); assay type: in vivo, mouse
Description: Acute experiments. Drugs or appropriate vehicles (saline, for CCK-8 and d-fenfluramine; dimethylsulfoxide/saline, 70/30, for all other agents; 4 ml-kg^−1; i.p.) were administered at 5:00-5:30 PM to free-feeding mice, which were habituated to the experimental setting.

[9] = target: T1, cannabinoid binding to rat brain membranes (Rattus norvegicus, UniProt P20272); assay: Displacement of cannabinoid binding to rat brain membranes; conditions: rat brain membranes in vitro
T1 construct: from tissue; host or cells: rat brain membranes

[10] = Operant responses for food; assay type: in vivo, rat; conditions: at a dose substantially higher than those required to produce hypophagia
Description: Operant responses for food. Rats were trained to lever press for food on a fixed ratio 1 (FR1) schedule of reinforcement, while food-restricted at 20 g of chow per rat per day (Rodriguez de Fonseca, et al., Acta Pharmacol. Sin., 20:1109-1114 (1999)). Once stable responding was achieved, the animals were trained to acquire an FR5, time out 2-min schedule of food reinforcement and kept in limited access to food. When a stable baseline was obtained, the animals were used to test the effects of vehicle or OEA (1, 5 or 20 mg per kg) administered 15 min before lever presentation. Test duration was 60 min.

[11] = OEA 5 mg kg−1 i.p. once a day for 2 weeks
[12] = obese wild-type mice, 5 mg-kg^−1 i.p. daily

T1 sequence (P20272 whole entry): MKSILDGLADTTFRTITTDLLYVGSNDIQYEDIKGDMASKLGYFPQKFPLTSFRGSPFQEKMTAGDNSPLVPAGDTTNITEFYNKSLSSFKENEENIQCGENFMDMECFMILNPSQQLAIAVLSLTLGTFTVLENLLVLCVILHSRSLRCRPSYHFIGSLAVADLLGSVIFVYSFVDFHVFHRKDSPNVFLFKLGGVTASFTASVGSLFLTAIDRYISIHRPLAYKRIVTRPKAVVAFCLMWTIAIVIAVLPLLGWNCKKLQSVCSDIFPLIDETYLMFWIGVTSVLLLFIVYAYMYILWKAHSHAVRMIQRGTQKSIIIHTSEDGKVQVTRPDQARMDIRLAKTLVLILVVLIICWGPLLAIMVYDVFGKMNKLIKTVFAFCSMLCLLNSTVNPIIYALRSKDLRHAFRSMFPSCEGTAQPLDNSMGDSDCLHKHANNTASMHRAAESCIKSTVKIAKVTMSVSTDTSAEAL

With `CCCCCCCC/C=C\CCCCCCCC(=O)NCCO` [OEA, Z-2-hydroxyethyl octadec-9-enamide] the “activity of the hypothalamus-pituitary-adrenal (HPA) axis” value [1] was “did not alter”, the “food intake after vagotomy or capsaicin treatment” value [2] was “no effect” and the Serum cholesterol [3, 11] was 66.14 ± 7.06 mg/dL. The Serum glucose [3, 11] was 221.25 ± 23.80 mg/dL, the Serum triglycerides [3, 11] was 394.17 ± 49.40 mg/dL and the “food intake and body-weight gain” value ([3]; OEA 5 mg-kg^−1 once daily for 2 weeks i.p.) was “significant inhibition”. The “anxiety-like symptoms (elevated plus maze)” value ([4]; acute) was “did not produce”, the body temperature ([4]; acute, 5 or 20 mg per kg) was “did not alter” and the “pain threshold (hot plate)” value ([4]; acute, 5 or 20 mg per kg) was “did not alter”. The “motor activity (open field)” value ([4]; at a dose substantially higher than those required to produce hypophagia) was “reduced”, the conditioned taste aversion [5] was “little effect” and the “hypercholesterolemia (serum cholesterol)” value ([6]; high fat-fed PPARα-null mice) was “ineffective”. For the same compound, the “hypercholesterolemia (serum cholesterol)” value ([6]; high fat-fed wild-type mice) was “partially corrected”, the “cumulative food intake and body-weight gain” value ([6]; obese PPARα deficient mice, 5 mg-kg^−1 i.p. daily) was “no such effect” and the body-weight gain [6, 12] was “suppressed”. For the same compound, the “cumulative food intake (normalized for body mass)” value [6, 12] was “significantly reduced”, the “food intake (hypophagia)” value ([7]; 24-h food-deprived rats, i.p.) was “dose- and time-dependent suppression of food intake” and the water intake ([7]; acute, 5 or 20 mg per kg) was “did not alter”. The “half-maximally effective dose for hypophagia” value ([7]; i.p., rats) was 5 mg per kg, the “meal pattern analysis (eating latency, meal size, post-meal interval)” value ([8]; C57BL/6J mice) was “essentially identical” and the “feeding in wild-type mice” value ([8]; OEA 10 mg-kg^−1 i.p.) was “reduces feeding”. For the same compound, the “feeding in PPARα-deficient mice” value ([8]; OEA 10, Wy-14643 40, d-fenfluramine 4 mg-kg^−1, CCK-8 25 μg-kg^−1, i.p.) was “absent and not”, the “displacement of cannabinoid binding” value [9] was “did not displace” and the “operant responses for food” value [10] was “reduced”.
